Reference: patent publication US20210378993A1 (Nacuity Pharmaceuticals, Inc., priority 2020, published 2021)
Several values for one entry are separate records, joined by “and”; a condition that tells them apart may be missing. Identical values can stand only once.

Tests used:
[1] = system: human cystinotic fibroblasts (GM00008); assay: Screening of cystine-depleting activity in human cystinotic cell-based model; details: 50 μM
Description: A specialized in vitro human cystinotic cell-based model was used for determining cystine content (Omran et al., 2011c). […]
The cells were recovered from storage at −80° C. and suspended in 100 μl […] N-ethyl malimide prepared in phosphate buffer (pH 7.6) followed by sonication for 10 seconds which was repeated 3 times with 20 second cooling intervals on ice. The solution was centrifuged at 800 G for 10 min at 4° C. (Biofuge primo R Heraeus centrifuge). To this cell supernatant (40 μl) was added 4 μl of 4M NaBH4 in 7:3 0.1 M NaOH/DMSO. After 5 min incubation at room temperature, 800 μl of sodium acetate buffer (pH 4.7) was added. A 5 μl volume of the diluted solution was added to 100 μl of 0.6mg/ml solution of Papain-SSCH3 in a 96 well plate and incubated for one hour at room temperature. A 100 μl volume of 4.9 mM L-benzoylarginine p-nitroanilide (L-BAPNA) solution in sodium acetate buffer (pH 4.0) was added to each well of the 96 well plate, gently mixed and incubated for further one hour at room temperature. Absorption at 410 nm was measured and the cysteine levels were calculated by comparison to known cysteine standard.
The protein concentration in every sample was measured according to Bradford method. Briefly, 200 μl of Bradford reagent was added to 5 μl of cell supernatant in each well of a 96 well plate and incubated for 5 minutes at room temperature and the absorption at 595 nm was measured. The protein concentration was calculated using a range of concentrations of bovine serum albumin as a standard. The cysteine levels were determined following normalization to μM cysteine per mg of protein.

rabbit eyes = assay: Ophthalmic tolerability, daily Draize scores after topical ocular administration; assay type: in vivo; details: rabbits, 1% in prototype vehicle, per animal and eye; for Daily Draize Scores for Chemosis, Day 1 / Daily Draize Scores for Discharge, Day 1 / Daily Draize Scores for Hyperemia, Day 1 / Daily Draize Scores for Chemosis, Day 2 / Daily Draize Scores for Discharge, Day 2 / Daily Draize Scores for Hyperemia, Day 2 / Daily Draize Scores for Chemosis, Day 3 / Daily Draize Scores for Discharge, Day 3 / Daily Draize Scores for Hyperemia, Day 3 / Daily Draize Scores for Chemosis, Day 4 / Daily Draize Scores for Discharge, Day 4 / Daily Draize Scores for Hyperemia, Day 4 / Daily Draize Scores for Chemosis, Day 5 / Daily Draize Scores for Discharge, Day 5 / Daily Draize Scores for Hyperemia, Day 5 / Daily Draize Scores for Chemosis, Day 6 / Daily Draize Scores for Hyperemia, Day 6 / Daily Draize Scores for Discharge, Day 6: bilateral topical four times a day; for Daily Draize Scores for Chemosis, Day 7 / Daily Draize Scores for Hyperemia, Day 7 / Daily Draize Scores for Discharge, Day 7 / Daily Draize Scores for Chemosis, Day B / Daily Draize Scores for Discharge, Day B / Daily Draize Scores for Hyperemia, Day B: bilateral topical; for Daily Draize Scores for Chemosis, Day 7 / Daily Draize Scores for Hyperemia, Day 7 / Daily Draize Scores for Discharge, Day 7: once on Day 7; for Daily Draize Scores for Chemosis, Day B / Daily Draize Scores for Discharge, Day B / Daily Draize Scores for Hyperemia, Day B: (baseline)
Description: To simulate topical ocular exposure to an ophthalmic insert containing AGENT, prototype ophthalmic formulations were prepared containing either 1% NPI-001, 1% diNACA, 1% NAC or vehicle and tested to evaluate ocular tolerability. Three rabbits per group were administered 1% NPI-001, 1% di-NAC, 1% NAC in a prototype vehicle, via bilateral topical administration four times a day for 6 days, and once on Day 7.

[2] = system: human cystinotic fibroblasts (GM00008); assay: Cytotoxicity (MTT cell viability) in cystinotic fibroblast cell culture; assay type: cell-based; details: for cell viability (cytotoxicity) versus no treatment: 25, 50 or 75 μM, 48 and 72 hours (FIGS. 1 and 2), MTT; for increase of human cystinotic cell viability compared to cysteamine at the same concentration: 25 μM
Description: Appropriate concentrations of the NACA and diNACA were selected and incubated along with human cystinotic fibroblasts in media. […] Media was then removed, and cells were incubated in 0.5mg/ml MTT (3-(4,5-dimethylthiazol-2-yl)-2,5-diphenyltetrazolium bromide) reconstituted in media. A colorimetric assay used reduction of the yellow tetrazolium salt (MTT) to a purple formazan salt in order to measure cellular metabolic activity as a proxy for cell viability. Treated cells were incubated in MTT for 4 hours at 37° C., after which time intracellular purple formazan salt crystals were visible under a microscope. MTT solution was then removed, and DMSO was added to each well in order to lyse cells and dissolve the salt crystals. After 1 hour incubation at 37° C., absorbance was measured on a multiwell plate reader (Biotek FL6000) at 570 nm, and percentage cell viability calculated.

[3] = NACA in aqueous humor after topical ocular administration; assay type: in vivo; details: rabbit eyes, 1% topical ocular
Description: The thiol moiety of NAC, NACA, diNACA and their respective internal standards oxidizes quickly in plasma through formation of disulfides. In order to determine total NAC and total NACA levels in plasma, tris(2-carboxyethyl)phosphine (TCEP) is added during the extraction to reduce disulfide bonds (King et al., 2019). Ammonium bicarbonate is added to control sample pH near neutral, as TCEP will otherwise acidify the aliquoted samples and hinder derivatization. The free analyte is then derivatized to a stable thioether using 2-chloro-1-methylpyridinium iodide (CMPI). N-acetyl-L-cysteine is used as the reference standard. The assay would not discern the enantiomer, N-acetyl-D-cysteine, if present. A sample volume of 25.0 μL is aliquoted into a 1.2 mL 96-well plate to which is added, in sequence, 25.0 μL internal standard solution (1000 ng/mL NAC-D3 and 1000 ng/mL NACA-D3 in water), 50.0 μL of ammonium bicarbonate (100 mM), 5.0 μL CMPI (60 mM in water), and 5.0 μL of TCEP (60 mM in water). Samples are allowed to react for 30 minutes. To precipitate proteins, 500 μL of acetonitrile is then added to all samples. The plate is covered and the mixtures are shaken and centrifuged. […]
Samples were analyzed on a Waters Acquity liquid chromatograph interfaced with a Thermo Scientific TSQ Vantage triple quadrupole mass spectrometer with ESI ionization (King et al., 2019). […]

[4] = target: T1, glutamate cysteine ligase (GCL, EC 6.3.2.2) (Homo sapiens, UniProt P48506); details: cited from earlier work
T1 sequence (P48506 1-637): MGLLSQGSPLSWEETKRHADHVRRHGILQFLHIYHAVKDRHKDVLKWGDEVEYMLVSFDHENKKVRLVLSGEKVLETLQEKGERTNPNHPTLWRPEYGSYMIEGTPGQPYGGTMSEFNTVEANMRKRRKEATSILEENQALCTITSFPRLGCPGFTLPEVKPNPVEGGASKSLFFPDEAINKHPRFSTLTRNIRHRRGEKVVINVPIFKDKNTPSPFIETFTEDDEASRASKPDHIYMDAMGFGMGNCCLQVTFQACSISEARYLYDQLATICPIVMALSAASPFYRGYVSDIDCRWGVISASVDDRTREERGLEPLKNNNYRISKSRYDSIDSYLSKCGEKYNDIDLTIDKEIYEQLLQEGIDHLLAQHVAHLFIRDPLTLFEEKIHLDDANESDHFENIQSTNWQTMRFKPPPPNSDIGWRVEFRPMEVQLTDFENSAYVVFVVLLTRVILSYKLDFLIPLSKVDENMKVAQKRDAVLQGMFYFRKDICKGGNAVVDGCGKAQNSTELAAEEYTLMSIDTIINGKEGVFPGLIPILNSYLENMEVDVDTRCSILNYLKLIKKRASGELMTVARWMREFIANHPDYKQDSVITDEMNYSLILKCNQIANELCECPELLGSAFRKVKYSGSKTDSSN
T1 sequence (P48507 1-274 partner): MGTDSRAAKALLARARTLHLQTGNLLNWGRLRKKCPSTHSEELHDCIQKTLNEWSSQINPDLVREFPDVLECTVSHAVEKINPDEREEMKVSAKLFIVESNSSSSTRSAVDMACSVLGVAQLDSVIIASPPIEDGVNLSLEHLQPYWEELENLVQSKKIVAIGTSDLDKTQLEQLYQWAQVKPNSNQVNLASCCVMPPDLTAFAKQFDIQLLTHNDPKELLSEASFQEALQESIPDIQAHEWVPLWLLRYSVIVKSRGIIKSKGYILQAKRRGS

[5] = eyedrops, stored at −20° C. until dispensed, kept refrigerated once opened; cited from earlier work

SMILES | relative cystine concentration as percent of control, comparison with cysteamine ([1]; 6 hours (FIG. 3)) | relative cystine concentration as percent of control, comparison with cysteamine ([1]; 24 hours (FIG. 4)) | relative cystine concentration as percent of control, comparison with cysteamine ([1]; 48 hours (FIG. 5)) | Daily Draize Scores for Chemosis, Day 1 (rabbit eyes) | Daily Draize Scores for Discharge, Day 1 (rabbit eyes) | Daily Draize Scores for Hyperemia, Day 1 (rabbit eyes) | Daily Draize Scores for Chemosis, Day 2 (rabbit eyes) | Daily Draize Scores for Discharge, Day 2 (rabbit eyes) | Daily Draize Scores for Hyperemia, Day 2 (rabbit eyes) | Daily Draize Scores for Chemosis, Day 3 (rabbit eyes) | Daily Draize Scores for Discharge, Day 3 (rabbit eyes) | Daily Draize Scores for Hyperemia, Day 3 (rabbit eyes) | Daily Draize Scores for Chemosis, Day 4 (rabbit eyes) | Daily Draize Scores for Discharge, Day 4 (rabbit eyes) | Daily Draize Scores for Hyperemia, Day 4 (rabbit eyes) | Daily Draize Scores for Chemosis, Day 5 (rabbit eyes) | Daily Draize Scores for Discharge, Day 5 (rabbit eyes) | Daily Draize Scores for Hyperemia, Day 5 (rabbit eyes) | Daily Draize Scores for Chemosis, Day 6 (rabbit eyes) | cell viability (cytotoxicity) versus no treatment [2] | other results
CC(=O)NC(CS)C(N)=O (stereo not shown) | statistically superior to cysteamine | statistically superior | statistically superior to cysteamine | 0 | 0 | 0 | 0 | 0 | 0 | 0 | 0 | 0 | 0 | 0 | 0 | 0 | 0 | 0 | 0 | increased cell viability | relative cystine concentration as percent of control, comparison with cysteamine ([1]; 72 hours (FIG. 6)): superior to cysteamine; Daily Draize Scores for Hyperemia, Day 6 (rabbit eyes): 0; Daily Draize Scores for Discharge, Day 6 (rabbit eyes; listed as NPI-001): 0.5 and 0 (5×); Daily Draize Scores for Chemosis, Day 7 (rabbit eyes): 0; Daily Draize Scores for Hyperemia, Day 7 (rabbit eyes): 0; Daily Draize Scores for Discharge, Day 7 (rabbit eyes; listed as NPI-001): 0 (4×) and 0.5 (2×); Daily Draize Scores for Chemosis, Day B (rabbit eyes): 0; Daily Draize Scores for Discharge, Day B (rabbit eyes): 0; Daily Draize Scores for Hyperemia, Day B (rabbit eyes): 0; increase of human cystinotic cell viability compared to cysteamine at the same concentrations ([2]; all concentrations (25, 50, 75 μM), 72 hours (FIG. 2)): statistically superior to cysteamine; NACA in aqueous humor [3]: detectable
N[C@@H](CCC(=O)N[C@@H](CS)C(=O)NCC(=O)O)C(=O)O [GSH, c-L-glutamyl-L-cysteinyl-glycine] |  |  |  |  |  |  |  |  |  |  |  |  |  |  |  |  |  |  |  |  | Ki ([4]; read-out: Ki, nonallosteric competitive inhibition of GCL): 2300 µM
NCCS [cysteamine, reference compound] |  |  |  |  |  |  |  |  |  |  |  |  |  |  |  |  |  |  |  | increased cell viability | shelf life [5]: 1 week
N[C@@H](CS)C(=O)O [cysteine, L-cysteine] |  |  |  |  |  |  |  |  |  |  |  |  |  |  |  |  |  |  |  |  | Km [4]: 100 to 300 µM
CC(=O)NC(CSSCC(NC(C)=O)C(N)=O)C(N)=O [diNACA, (2R,2R′)-3,3′-disulfanediyl bis(2-acetamidopropanamide)] | statistically superior to cysteamine | superior to cysteamine | statistically superior to cysteamine | 0 | 0 | 0 | 0 | 0 | 0 | 0 | 0 | 0 | 0 | 0 (3×) and 1 (2×) and 0.5 | 0 | 0 | 0 | 0 | 0 | increased cell viability | depletion of cystine compared to control ([1]; 72 hours (FIG. 6)): 20%; Daily Draize Scores for Discharge, Day 6 (rabbit eyes): 0 (4×) and 0.5 (2×); Daily Draize Scores for Hyperemia, Day 6 (rabbit eyes): 0; Daily Draize Scores for Chemosis, Day 7 (rabbit eyes): 0; Daily Draize Scores for Discharge, Day 7 (rabbit eyes): 0 (5×) and 0.5; Daily Draize Scores for Hyperemia, Day 7 (rabbit eyes): 0; Daily Draize Scores for Chemosis, Day B (rabbit eyes): 0; Daily Draize Scores for Discharge, Day B (rabbit eyes): 0; Daily Draize Scores for Hyperemia, Day B (rabbit eyes): 0; increase of human cystinotic cell viability compared to cysteamine at the same concentration ([2]; 48 hours (FIG. 1)): statistically superior to cysteamine; increase of human cystinotic cell viability compared to cysteamine at the same concentration ([2]; 72 hours (FIG. 2)): statistically superior to cysteamine; NACA in aqueous humor [3]: detectable
